The source of these data is patent US9440989B2, “Antifibrinolytic compounds” (PROYECTO DE BIOMEDICINA CIMA, S.L., priority 2012, dated 2016).

Marks after values point to notes of the source that are not given here. Bounds are passed on as bounds.

Experiment [1] relates to human blood (whole blood clot lysis, tPA). Nature of the experiment: Thromboelastometry (ROTEM, modified in-tem with tPA): whole blood clot formation and lysis, human blood. To be noted: Homo sapiens, read-out: EC50LT (effective concentration to delay lysis time by 50%).
Procedure: A modification of in-tem test as described below was used for the examination of antifibrinolytic effects of tested compounds and its interaction with platelets in citrated blood.
In a pre-warmed cuvette and holder 1 μL of Tissue plasminogen activator (tPA) (150,000 U/mL, Actylise), 20 μL of start-tem reagent (CaCl2), 20 μL of in-tem reagent (activators of coagulation system), 3 μL of DMSO (control) or tested compounds (CMs) in DMSO and 300 μL of citrated blood pre-warmed were pipetted. The cup holder containing the sample mixture was placed immediately on the appropriate channel. The measurement was recorded for 60 min to allow clot formation and lysis.
For experiment [2], the system named is tail bleeding in wild-type C57B16 mice. Put plainly: Tail bleeding assay, traditional bleeding model. It counts as in vivo. The following applies: intraperitoneal 4 mg/mouse, 160 mg/Kg, tail tip removed 30 min after injection, n = 10. The procedure:
(§1) Bleeding time was evaluated in 2 months old wild-type C57B16 (n=10) mice by removing the tail tip. Mice (20-25 g) were anaesthetized with 2.5% isoflurane and maintained at 37° C. on heating pads. The hemostatic efficacy was evaluated in 2 models, traditional bleeding model and hyperfibrinolytic bleeding model.
Traditional bleeding model consisted in intraperitoneal injection of different compounds (4 mg/mouse, 160 mg/Kg) dissolved in 2% carboxymethyl cellulose or vehicle. Thirty minutes after injection, 5 mm of tail tip were removed using a scalpel blade and the tail tip bathed in 1 mL of sterile saline at 37° C. The time to cessation of bleeding was measured up to 30 min. The time of bleeding was defined as the interval between initial transection and the visual cessation of bleeding.

For experiment [3], the system named is mice blood (whole blood clot lysis, tPA). Put plainly: Thromboelastometry (ROTEM, modified in-tem with tPA): whole blood clot formation and lysis, mice blood. The following applies: Mus musculus, read-out: EC50LT (effective concentration to delay lysis time by 50%), assayed concentrations 1000-0.2 μM. Type of experiment: cell-based.
Experiment [4] deals with tPA-prolonged tail bleeding in wild type mice (C57/Bl6). Nature of the experiment: Tail bleeding assay, hyperfibrinolytic bleeding model (tPA 0.5 mg/kg). It counts as in vivo. To be noted: n≧10. On the procedure:
as §1
Hyperfibrinolytic bleeding model, consisted in injection of 0.5 mg/kg tPA into the ocular plexus to prolong bleeding time due to excessive fibrinolysis. […] The catheter was connected to a syringe pump (AL-1000, WPI) for the infusion of 200 μL (10% bolus, 90% perfusion during 40 minutes) of tested agents. Then, tPA (0.5 mg/kg) was injected into the ocular plexus and five minutes after tPA administration, saline or the different compounds was infused through the femoral catheter to ensure systemic distribution of all the agents. Reference compounds, TXA and Aprotinin, were administered at 300 and 10 mg/Kg respectively; however, all compounds of the invention were administered at 1 mg/Kg. Five minutes later, 5 mm of tail tip were removed using a scalpel blade and the tail tip bathed in 1 mL of sterile saline at 37° C.
The time of bleeding was defined as the interval between initial transections and the visual cessation of bleeding, that was measured up to 30 minutes. A value of 30 min was assigned to those animals bleeding longer than the observation period. […] Bleeding time was determined in wild type mice (C57/Bl6), where n≧10 per assayed compound; therefore, BT is reported as a mean value—in the case of saline, BT is reported as mean±ESM.

Setting [5] is: 1 mg/Kg infused via femoral vein.

As for `COc1ccc(Oc2ccc(S(=O)(=O)C3(C(=O)NO)CCC4(CCCNC4)CC3)cc2)cc1` (stereo not drawn) [Example 1-01], the EC50 in experiment [1] was below 1000 nM. In addition, the “Bleeding time” value in experiment [2] came to 31.0 ± 3.6 s.

On to `COc1ccc(Oc2ccc(S(=O)(=O)C3(C(=O)NO)CCC4(CCCN(C)C4)CC3)cc2)cc1` (stereo not drawn) [Example 1-02], for which the EC50 in experiment [1] lay in the range of 10000 to 25000 nM. In addition, the “Bleeding time” value in experiment [2] was found to be 39.2 ± 4.7 s.

For `O=C(O)c1ccc(Oc2ccc(S(=O)(=O)C3(C(=O)NO)CCC4(CCNCC4)C3)cc2)cc1` (stereo not drawn) [Example 1-07], the EC50 is below 1 nM in experiment [3] and below 1000 nM in experiment [1]. Besides, the “BT (bleeding time, mean)” value in experiment [4] (setting [5]) is listed as “++* (10 minutes≦BT<20 minutes (++))”.

`CNC(=O)c1ccc(Oc2ccc(S(=O)(=O)C3(C(=O)NO)CCC4(CCNCC4)C3)cc2)cc1` (stereo not drawn) [Example 1-08]: the EC50 was 1 to 1000 nM in experiment [3] and below 1000 nM in experiment [1]. Moreover, the “BT (bleeding time, mean)” value in experiment [4] (setting [5]) is given as “++++**†† (BT<5 minutes (++++))”.

In the case of `O=C(NO)C1(S(=O)(=O)c2ccc(NC3CCCCC3)cc2)CCC2(CCNCC2)C1` (stereo not drawn) [Example 1-14], the EC50 is 1 to 1000 nM in experiment [3] and below 1000 nM in experiment [1]. Moreover, the “BT (bleeding time, mean)” value in experiment [4] (setting [5]) is given as “++++**†† (BT<5 minutes (++++))”.

Turning to `O=C(NO)C1(S(=O)(=O)c2ccc(Oc3ccc(OC(F)(F)F)cc3)cc2)CCC2(CCNCC2)C1` (stereo not drawn) [Example 1-73], the EC50 in experiment [3] is 1000 to 10000 nM; in experiment [1], below 1000 nM. Also, in experiment [4] (setting [5]), the “BT (bleeding time, mean)” value was “++++**†† (BT<5 minutes (++++))”.

Take `O=C(NO)C1(S(=O)(=O)c2ccccc2NC2CCCCC2)CCC2(CCNCC2)C1` (stereo not drawn) [Example 1-79]: the EC50 in experiment [1] is below 1000 nM. Moreover, in experiment [4] (setting [5]), the “BT (bleeding time, mean)” value is reported as “++** (10 minutes≦BT<20 minutes (++))”.

Consider `O=C(NO)C1(S(=O)(=O)c2ccc(NC3CCCCC3)c(Cl)c2)CCC2(CCNCC2)C1` (stereo not drawn) [Example 1-80], for which the EC50 in experiment [1] is below 1000 nM. For the same molecule, in experiment [4] (setting [5]), the “BT (bleeding time, mean)” value is given as “+++**† (5 minutes≦BT<10 minutes (+++))”.

Regarding `O=C(NO)C1(S(=O)(=O)c2ccc(NCC3CCCCC3)cc2)CCC2(CCNCC2)C1` (stereo not drawn) [Example 1-82], the EC50 in experiment [1] is below 1000 nM. In experiment [4] (setting [5]), the “BT (bleeding time, mean)” value is on record as “+++** (5 minutes≦BT<10 minutes (+++))”.

Take `O=C(NO)C1(S(=O)(=O)c2ccc(NC3CCOCC3)cc2)CCC2(CCNCC2)C1` (stereo not drawn) [Example 1-96]: the EC50 in experiment [1] was below 1000 nM. Further, the “BT (bleeding time, mean)” value in experiment [4] (setting [5]) was “+++** (5 minutes≦BT<10 minutes (+++))”.

As for `O=C(Oc1ccc(S(=O)(=O)C2(C(=O)NO)CCC3(CCNCC3)C2)cc1)c1ccc(OC(F)(F)F)cc1` (stereo not drawn) [Example 1-102], the EC50 in experiment [1] is above 25000 nM. Moreover, the “BT (bleeding time, mean)” value in experiment [4] (setting [5]) was “++* (10 minutes≦BT<20 minutes (++))”.

Take `COc1ccc(S(=O)(=O)C2(C(=O)NO)CCC3(CCNCC3)C2)cc1Cl` (stereo not drawn) [Example 1-107]: the EC50 in experiment [1] was below 1000 nM. Moreover, in experiment [4] (setting [5]), the “BT (bleeding time, mean)” value is given as “+++** (5 minutes≦BT<10 minutes (+++))”.

On to `O=C(NO)C1(S(=O)(=O)c2ccc(OCc3cn[nH]c3)cc2)CCC2(CCNCC2)C1` (stereo not drawn) [Example 1-112], for which the EC50 in experiment [1] was below 1000 nM. In addition, the “BT (bleeding time, mean)” value in experiment [4] (setting [5]) is given as “+++** (5 minutes≦BT<10 minutes (+++))”.

`NC[C@H]1CC[C@H](C(=O)O)CC1` [TXA, tranexamic acid, reference compound]: the EC50 in experiment [3] was in the range of 1 to 1000 nM; in experiment [1], 1000 to 10000 nM. Further, the “BT (bleeding time, mean)” value in experiment [4] (300 mg/Kg infused via femoral vein) was “++** (10 minutes≦BT<20 minutes (++))”.
